Results from US9581587B2, “Sperm staining and sorting methods” (INGURAN, LLC, priority 2011, dated 2017).

Experiments:
[1] = tested on: sperm; test: Split quality, split enhancing dyes at various concentrations and incubation times (Example 10); type: cell-based, bulls; conditions: for split enhancing effect compared to control: 15, 45, 125 μM, 30-75 minutes, averaged over 8 bulls; for peak to valley ratio, Average 8 bulls: 25 μM yellow food dye No. 6
Experimental: (§1) Eight bulls were collected, including 4 Jersey bulls, 3 Holstein bulls and one mixed dairy-breed. The ejaculates were collected at concentrations ranging from 1700×10^6 sperm/ml to 1100×10^6 sperm/ml and all had progressive motility of a least 60%.
Sperm from each bull was extended to 160 million per ml with a first buffer, (TALP described in table 1 at a pH 7.4) and stained with 64 μM (164/2 mL) Hoechst 33342 at 34° C. Additionally, Phenol Red, Red Food Dye No. 2, Red Food Dye No. 3, and Red Food Dye No. 4, were each tested as split enhancing dyes in the first buffer at concentrations of 15 μM, 45 μM and 125 μM. For each bull, each concentration of each dye was incubated for periods of 30 minutes, 45 minutes, 60 minutes, and 75 minutes were utilized before a second buffer with an additional dye was applied.
Each sample was then extended in an equal volume of a second buffer which comprised a 5.5 pH modified TALP having 25 μM yellow food dye No. 6 (acting as a dead quenching dye) in addition to the split enhancing dye provided in the first buffer. The second buffer was applied to every sample at 30 minutes, 45 minutes, 60 minutes, and 75 minutes. A control was additionally taken without any split enhancing dye for every bull at every time interval.
Sorting was performed on a MoFlo SX (Beckman Coulter, USA) in substantially the same manner described in Example 5. After calibration, screen shots of sorting histograms were taken and split quality was measured by peak to valley ratios in the same way described in Example 5 with reference to FIG. 4 and the resulting data, averaged over all 8 bulls, is found in Tables 18-21. Additionally, screen shots of bivariate plots were taken to measure the added dead quenching capacity of the mixed dead quenching and split enhancing dyes.

[2] = tested on: membrane compromised sperm; test: Added dead quenching capacity from bivariate plots (Example 10, FIG. 8); type: cell-based, bulls; conditions: with 25 μM yellow food dye No. 6, red food dye No. 4 at highest tested concentration
Experimental: as §1
Sperm from each bull was extended to 160 million per ml with a first buffer, (TALP described in table 1 at a pH 7.4) and stained with 64 μM (164/2 mL) Hoechst 33342 at 34° C. Additionally, Phenol Red, Red Food Dye No. 2, Red Food Dye No. 3, and Red Food Dye No. 4, were each tested as split enhancing dyes in the first buffer at concentrations of 15 μM, 45 μM and 125 μM. For each bull, each concentration of each dye was incubated for periods of 30 minutes, 45 minutes, 60 minutes, and 75 minutes were utilized before a second buffer with an additional dye was applied. […]
Sorting was performed on a MoFlo SX (Beckman Coulter, USA) in substantially the same manner described in Example 5. After calibration, screen shots of sorting histograms were taken and split quality was measured by peak to valley ratios in the same way described in Example 5 with reference to FIG. 4 and the resulting data, averaged over all 8 bulls, is found in Tables 18-21. […]

[3] = tested on: membrane compromised sperm; test: Dead gate intensity divided by live gate intensity, flow cytometer (Example 5); type: cell-based
Experimental: (§2) A single Jersey bull was collected at an initial sperm concentration 1900×10^6 sperm/ml in a volume of 5 ml. The progressive motility of the sperm was 65% with normal morphologies greater than 65%.
(§3) The entire ejaculate of sperm was suspended in first staining buffer, specifically a 7.4 pH TALP described in TABLE 1, to a concentration of 160×10^6 sperm per mL (determined on nucleocounter) and divided into three aliquots of about 20 mL into 50 mL Falcon tubes and pre-warmed for 10 minutes at 34° C. The DNA selective fluorescent dye, Hoechst 33342, was added and samples were held at 34° C. for 60 minutes. 3 different Hoechst 33342 Stain Levels were used=12 μL, 14 μL and 16 μL per 2 mL (effective concentrations of 48 μM, 56 μM, 64 μM).
(§4) Preparation of the second buffer including the dead quenching dye—A 2 L bag of TALP, described in TABLE 1, was adjusted to pH 5.60 using HCl and then sterile filtered. […] For each of the four dyes tested (R40-red food dye No. 40, Y5—yellow food dye No. 5, Y6—yellow food dye No. 6 and PR—phenol red), an appropriate number of milligrams of each powder was placed in a Erlenmeyer Flask and then an exact amount of TALP pH 5.60 was added to create a 250 μM concentration of the dye. The result was a working TALP stock for each dye with a 100% (125 μM) relative amount of dye 50% relative (62.5 μM) and 20% relative (25 μM) solutions were made by dilution of 100% by TALP pH 5.60.
(§5) Single tubes of stained sperm at each of the three Hoechst 33342 concentrations were treated with TALP pH 5.60 which had no dead quenching dye present. Single tubes using Vitamin B12 (red colored chemical) with stock concentration of 15 μM (12% relative) were tested.
(§6) After this “bulk” staining for 60 minutes, 1 mL aliquots of stained sperm were combined with 1 mL aliquots of the second buffer including the dead quenching dyes. Samples sat for approximately 30 minutes at room temperature before being analyzed on a MoFlo SX (Beckman Coulter, USA) sperm sorting flow cytometer. Event rates were held as close to 13,000 as possible at the point of data acquisition.
(§7) The total number of individual treatments was 42 tubes, each containing 2 mL of stained sample. The alignment of the sorter was established using nuclei and confirmed with live sample from the 50% Red 40 series. Once good alignment was established, each tube was placed on the sorter long enough to establish a stabile dead gate population (about 30 seconds) and then a screenshot was taken and saved as a .jpeg image. This approach of rapidly documenting each sample is used to assure the most consistent alignment between all samples. Realignment of sorter will not cause differences in the intensities of live and dead gate populations but will cause differences in split quality.
(§8) FIG. 4 illustrates an example histogram. The ratio of dead gate intensity divided by live gate intensity is created by dividing the distance “A” by the distance “B” shown as a percentage. Lower values mean higher levels of quenching. The ratio of peak height divided by valley height is created by dividing the distance “C” by the distance “D”. A value of 1.00 means “no split” while higher values mean “better splits”.

[4] = tested on: sperm; test: Split quality, height of peak divided by height of valley (Example 5); type: cell-based, Jersey bull; conditions: Hoechst 16 μL/2 mL
Experimental: as §2, §3, §4, §5, §6, §7, §8

[5] = tested on: membrane compromised sperm; test: Dead gate intensity, yellow 5 and phenol red at higher concentrations (Example 6); type: cell-based, Jersey bull; conditions: for Intensity: Hoechst 12 μL/2 mL
Experimental: (§9) A single Jersey bull was collected at an initial sperm concentration 1810×10^6 sperm/ml in a volume of 3.9 ml. The progressive motility of the sperm was 65% with normal morphologies greater than 50%.
(§10) Sperm were suspended at 320 million per mL in 30 mL a first buffer, (TALP described in table 1 at a pH 7.4) with 12 μL of Hoechst 33342 per 2 mL (48 μM) of stain and incubated for 1 hour at 34° C. Stained sperm was then placed as 1 mL aliquots in sample tubes and a 1 mL volume of the appropriate TALP was added. The same second buffer was used as example 1, namely a modified 5.60 pH TALP.
(§11) Each of the stained samples was sorted on a MoFlo SX (Beckman Coulter, USA) as described in Example 6. Screen shots were taken and the dead gate intensity and the split quality were measured in the same way described in Example 1 and recorded in TABLE 14.

[6] = tested on: sperm; test: Split quality PV (Example 6); type: cell-based, Jersey bull; conditions: Hoechst 12 μL/2 mL, resulting pH 6.70
Experimental: as §9, §10, §11

[7] = tested on: sperm; conditions: as dead quenching dye; cited from earlier work
[8] = tested on: sperm; test: Split quality, red food dye No. 3 as added split enhancing dye (Example 9); type: cell-based, bull; conditions: with yellow food dye No. 6 or red food dye No. 40 as dead quenching dye
Experimental: A single bull was collected for the Example 9 in the same way described in Example 5. […] The second buffer was additionally treated with concentrations of 25, 50, 100, 150, 300, or 600 μM of red food dye No. 3, as indicated in Table 6. Sorting was performed on a MoFlo SX (Beckman Coulter, USA) in substantially the same manner described in Example 6. After calibration, screen shots of sorting histograms were taken and the split quality was measured in terms of peak to valley ratios in the same way described in Example 5 with reference to FIG. 4 and the resulting data is found in Table 17.

[9] = split enhancing dye 125 μM, 30 Min

Structure (SMILES): Cc1c(C(=O)O)c(O)cc2c1C(=O)c1c(O)c(C3O[C@H](CO)[C@@H](O)[C@H](O)[C@H]3O)c(O)c(O)c1C2=O (stereo in doubt) [Red 4, carmine]
- split enhancing effect compared to control [1]: provides distinct improvements at all concentrations and at all times
- dead quenching capacity in combination with dead quenching dye [2]: significant increase in quenching the dead subpopulation

Structure (SMILES): O=C([O-])C1=NN(c2ccc(S(=O)(=O)[O-])cc2)C(=O)/C1=N/Nc1ccc(S(=O)(=O)[O-])cc1.[Na+].[Na+].[Na+] [Yellow 5, Trisodium (4E)-5-oxo-1-(4-sulfonatophenyl)-4-[(4-sulfonatophenyl)hydrazono]-3-pyrazolecarboxylate]
- Dead Intensity ([3]; dye 25 μM, Average over Hoechst levels): 90%
- Dead Intensity ([3]; dye 25 μM, Hoechst 12 μL/2 mL): 90%
- Dead Intensity ([3]; dye 25 μM, Hoechst 14 μL/2 mL): 90%
- Dead Intensity ([3]; dye 25 μM, Hoechst 16 μL/2 mL): 90%
- Dead Intensity ([3]; dye 62.5 μM, Average over Hoechst levels): 74%
- Dead Intensity ([3]; dye 62.5 μM, Hoechst 12 μL/2 mL): 74%
- Dead Intensity ([3]; dye 62.5 μM, Hoechst 14 μL/2 mL): 77%
- Dead Intensity ([3]; dye 62.5 μM, Hoechst 16 μL/2 mL): 70%
- Dead Intensity ([3]; dye 125 μM, Average over Hoechst levels): 57%
- Dead Intensity ([3]; dye 125 μM, Hoechst 12 μL/2 mL): 54%
- Dead Intensity ([3]; dye 125 μM, Hoechst 14 μL/2 mL): 63%
- Dead Intensity ([3]; dye 125 μM, Hoechst 16 μL/2 mL): 55%
- ability to create a dead gate population (ordering of the four dyes) ([3]; from dead and live intensity data of Table 13): better quenching properties than phenol red
- Height of Peak/Height of Valley ([4]; dye 25 μM): 1.00
- Height of Peak/Height of Valley ([4]; dye 62.5 μM): 1.00
- amount of dye needed for a similar dead gate intensity ratio as red food dye No. 40 and yellow food dye No. 6 [5]: about five
- Intensity ([5]; dye 125 μM, resulting pH 6.70): 63%
- Intensity ([5]; dye 250 μM, resulting pH 6.70): 48%
- Intensity ([5]; dye 500 μM, resulting pH 6.70): 43%
- Intensity ([5]; dye 750 μM, resulting pH 6.70): <30%
- Intensity ([5]; dye 875 μM, resulting pH 6.70): <30%
- Intensity ([5]; dye 1250 μM, second buffer pH 5.60, resulting pH 6.70): <30%
- PV ([6]; dye 125 μM): 1.00
- PV ([6]; dye 250 μM): 1.00
- PV ([6]; dye 500 μM): 1.00
- PV ([6]; dye 750 μM): 1.00
- PV ([6]; dye 875 μM): 1.00
- PV ([6]; dye 1250 μM): 1.00

Structure (SMILES): O=S(=O)([O-])c1ccc2c(N=Nc3ccc(S(=O)(=O)[O-])c4ccccc34)c(O)c(S(=O)(=O)[O-])cc2c1.[Na+].[Na+].[Na+] [Red 2]
- split enhancing effect compared to control [1]: did not provide a split enhancing, or noise reducing effect
- peak to valley ratio, Average 8 bulls ([1]; split enhancing dye 45 μM, 30 Min): 1.00
- peak to valley ratio, Average 8 bulls [1, 9]: 1.00
- peak to valley ratio, Average 8 bulls ([1]; split enhancing dye 125 μM, 45 Min): 1.00
- peak to valley ratio, Average 8 bulls ([1]; split enhancing dye 125 μM, 60 Min): 1.00
- peak to valley ratio, Average 8 bulls ([1]; split enhancing dye 125 μM, 75 Min): 1.00
- dead quenching capacity in combination with dead quenching dye [2]: strong dead quenching capacity

Structure (SMILES): CC[N+](C)(CC)CCC[n+]1c(-c2ccccc2)c2cc(N)ccc2c2ccc(N)cc21.[I-].[I-] [propidium iodine]
- toxicity to sperm [7]: toxic to sperm

Structure (SMILES): O=C(O)c1ccccc1-c1c2cc(I)c(=O)c(I)c-2oc2c(I)c(O)c(I)cc12 [Red 3, 2-(6-Hydroxy-2,4,5,7-tetraiodo-3-oxo-xanthen-9-yl)benzoic acid]
- effect of increasing concentration on split quality [8]: improved the split quality up to the concentration of 300 μM
- split enhancing effect compared to control [1]: provided initial split enhancements at 15 μM and 45 μM
- peak to valley ratio, Average 8 bulls [1, 9]: 1.00
